# Experimental data: patent publication US11266655B2, “Methods and compositions for treating urea cycle disorders” (Camp4 Therapeutics Corporation, priority 2019, dated 2022)
# “And” between values parts separate entries of the source, which are not always exact repeats. Equal values may be shown once. Read-outs that look alike come from different tables or passages of the source.
# Experiments:
# [1] = system: NAGS; assay type: cell-based, human
# [2] = system: SLC25A15; experiment: RNA-seq of compound-treated primary human hepatocytes, SLC25A15 expression; assay type: cell-based
# [3] = system: ARG1; experiment: RNA-seq of compound-treated primary human hepatocytes, ARG1 expression; assay type: cell-based; settings: primary human hepatocytes; for Relative ARGI level vs Untreated (±Standard Deviation): triplicate (Table 17, FIG. 9)
# [4] = system: CPS1; experiment: RNA-seq of compound-treated primary human hepatocytes, CPS1 expression; assay type: cell-based; settings: primary human hepatocytes; for Relative CPS1 level vs Untreated (±Standard Deviation): triplicate (Table 19, FIG. 11); for CPS1 expression, Fold change (Log 2) vs untreated: RNA-seq
# [5] = system: SLC25A13; experiment: RNA-seq of compound-treated primary human hepatocytes, SLC25A13 expression; assay type: cell-based; settings: for Relative SLC25A13 level vs Untreated (±Standard Deviation): primary human hepatocytes, triplicate (Table 23, FIG. 15)
# [6] = system: ASS1; experiment: RNA-seq of compound-treated primary human hepatocytes, ASS1 expression; assay type: cell-based
# [7] = system: urea cycle genes; experiment: RNA-seq of primary human hepatocytes, compounds that modulate multiple urea cycle-related genes; assay type: cell-based; settings: primary human hepatocytes, RNA-seq; for Up-regulated Genes: urea cycle-related genes significantly increased (Table 10)
# Procedure: To identify small molecules that modulate urea cycle enzymes, primary human hepatocytes were prepared as a monoculture, and at least one small molecule compound was applied to the cells.
# RNA-seq was performed to determine the effects of the compounds on the expression of urea cycle enzymes in hepatocytes. Fold change was calculated by dividing the level of expression in the cell system that had been perturbed by the level of expression in an unperturbed system. Changes in expression having a p-value ≤0.05 were considered significant.
# Significance was defined as an FPKM ≥1, a log 2 (fold change) ≥0.5, and a q-value of ≤0.05 for selected gene target.
# [8] = system: OTC; experiment: RNA-seq of compound-treated primary human hepatocytes, OTC expression; assay type: cell-based; settings: primary human hepatocytes, RNA-seq
# [9] = 10 μM, primary human hepatocytes, triplicate (Table 21, FIG. 13)
# [10] = 3 μM, primary human hepatocytes, triplicate (Table 24, FIG. 16A-B)
# [11] = 10 μM, primary human hepatocytes, triplicate (Table 24, FIG. 16A-B)
# [12] = 10 μM, primary human hepatocytes, triplicate (Table 15, FIG. 7)
# [13] = Example 11, relative mRNA vs DMSO
Compound,"Relative NAGS level vs Untreated (±Standard Deviation) [1, 9]","Relative SLC25A15 level vs Untreated (±Standard Deviation) [2, 10]","Relative SLC25A15 level vs Untreated (±Standard Deviation) [2, 11]",Relative ARGI level vs Untreated (±Standard Deviation) ([3]; 1 μM),Relative ARGI level vs Untreated (±Standard Deviation) ([3]; 3 μM),Relative CPS1 level vs Untreated (±Standard Deviation) ([4]; 1 μM),Relative SLC25A13 level vs Untreated (±Standard Deviation) ([5]; 3 μM),Relative SLC25A13 level vs Untreated (±Standard Deviation) ([5]; 10 μM),"Relative ASS1 level vs Untreated (±Standard Deviation) [6, 12]",Relative NAGS level vs Untreated (±Standard Deviation) [1],Relative SLC25A15 level vs Untreated (±Standard Deviation) [2],"CPS1 expression, Fold change (Log 2) vs untreated [4]",number of urea cycle genes whose expression was significantly up-regulated [7],Up-regulated Genes [7],"OTC expression, Fold change (Log 2) vs untreated [8]",other results
COc1ccc(-c2ccc3c(N4CCOC[C@@H]4C)nc(N4CCOC[C@@H]4C)nc3n2)cc1CO [AZD-8055],1.43 ± 0.01,1.3 ± 0.06,1.64 ± 0.09,1.43 ± 0.25,1.36 ± 0.07,1.42 ± 0.24,1.35 ± 0.06,1.64 ± 0.09,1.66 ± 0.11,–,–,–,–,–,–,Relative ARGI level vs Untreated (±Standard Deviation) ([3]; 0.3 μM): 1.44 ± 0.09
CCNC(=O)Nc1ccc(-c2nc(N3CCOC[C@@H]3C)c3c(n2)C(C)(C)S(=O)(=O)C3)cc1 [CZ415],–,–,–,–,1.35 ± 0.12,1.32 ± 0.04,1.61 ± 0.19,1.52 ± 0.17,1.65 ± 0.11,2.00 ± 0.27,1.61 ± 0.19 and 1.52 ± 0.17,–,–,–,–,"increase in NAGS gene expression (Tables 21, 22, FIG. 13, 14) [1]: greatest increase"
TNF-α,–,–,–,–,–,–,–,–,–,–,–,2.31 Log 2,four,"CPS1, ASS1, OTC, ARG1",0.87 Log 2,"Fold change (Log 2) vs untreated, ASS1 expression ([6]; primary human hepatocytes, RNA-seq (Table 4)): 0.58 Log 2"
"O=C1CCc2c(Oc3ccc4c(c3)[C@@H]3[C@H](O4)[C@H]3c3nc4ccc(C(F)(F)F)cc4[nH]3)ccnc2N1 [Lifirafenib (BGB-283), Lifirafenib]",–,–,–,–,–,–,–,1.92 ± 0.11,–,1.35 ± 0.35 and 1.44 ± 0.15,1.92 ± 0.11 and 2.00 ± 0.13,–,–,–,–,"increase in SLC25A13 gene expression (Table 23, FIG. 15) [5, 13]: greatest increase; Relative ASS1 level vs Untreated (±Standard Deviation) [6]: 1.55 ± 0.28"
PDGF,–,–,–,–,–,–,–,–,–,–,–,2.12 Log 2,four,"CPS1, OTC, ARG1, SLC25A15",0.77 Log 2,"Fold change (Log 2) vs untreated, SLC25A15 expression ([2]; primary human hepatocytes, RNA-seq (Table 8)): 0.71 Log 2; Fold change (Log 2) vs untreated, ARG1 expression ([3]; RNA-seq (Table 7)): 1.85 Log 2"
COc1ccc(-c2ccc3c(N4CCOC[C@@H]4C)nc(N4CCOC[C@@H]4C)nc3n2)cc1CO [AZD8055],1.93 ± 0.02,1.33 ± 0.06 and 1.85 ± 0.26,1.54 ± 0.12 and 1.68 ± 0.26,1.34 ± 0.24,1.42 ± 0.03,1.38 ± 0.67,1.33 ± 0.06,1.54 ± 0.12,1.44 ± 0.27,–,–,–,–,–,–,"Relative NAGS level vs Untreated (±Standard Deviation) ([1]; 0.3 μM, primary human hepatocytes, triplicate (Table 21, FIG. 13)): 1.31 ± 0.20; Relative NAGS level vs Untreated (±Standard Deviation) ([1]; 1 μM, primary human hepatocytes, triplicate (Table 21, FIG. 13)): 1.41 ± 0.28; increase in NAGS gene expression (Tables 21, 22, FIG. 13, 14) [1, 13]: greatest increase; Relative ARGI level vs Untreated (±Standard Deviation) ([3]; 10 μM): 1.35 ± 0.08; Relative CPS1 level vs Untreated (±Standard Deviation) ([4]; 0.3 μM): 1.38 ± 0.27; Relative CPS1 level vs Untreated (±Standard Deviation) ([4]; 3 μM): 1.60 ± 0.07"
